The source of these data is patent publication US20040251215A1, “Method for killing organicsms in the course of conveying ballast water in ships and apparatus thereof” (priority 2003, published 2004).

Data set [1] deals with Bacteria. In words: Test of elimination of bacteria in seawater (ballast water) by hydroxyl radical solution. It is filed as cell-based. To be noted: OH concentration 0.63 mg/L. The text has this:
(§1) Free radical generator of the present invention was made of anode electrode 22, cathode electrode 21, dielectric substance layer 24 and septum 23. Strong electric field of 250-600 Td was formed between the anode electrode and cathode electrode. […] The undissolved free radicals were removed by residual free radical treater 13. High frequency electric source made from transformer 5, invertor 6 and controller 7 was used to supply electric source to free radical generator 3. Free radical concentration measuring apparatus 4 was used to measure the concentration of free radical produced while the hydroxyl radical solution concentration analyzer 14 was used to measure the concentration of hydroxyl radical solution. Untreated ballast water was suctioned by pump 19 into conveying pipe and filtered by filter 16 (FIG. 2). A part of them was taken out and was processed by free radical generating unit 15 into hydroxyl radical solution which was then mixed in liquid-liquid mixer 20 with ballast water conveyed in pipe and flowed through flow meter 17 and valve 18. The effectiveness of the elimination of single cell alga, protozoans and bacteria was illustrated in Table 1.

Data set [2] relates to Protozoan. The data set can be described thus: Test of elimination of protozoan in seawater (ballast water) by hydroxyl radical solution. It is filed as cell-based. To be noted: OH concentration 0.63 mg/L.
Excerpt: as §1

A short description of data set [3]: Decomposition of residual hydroxyl radicals. The following applies: treated ballast water. It is filed as physicochemical. On the procedure:
The residual hydroxyl radicals were decomposed after 20 min into H2O, O2 and the like and there was no any residual chemical reagent left. Therefore the method for treating ballast water by using hydroxyl radicals solution is a green effective method.

Data set [4] concerns bacteria, single cell alga, protozoan, spore and vibrio. In words: Time and concentration needed to kill microorganisms in ballast water by hydroxyl radical. It is filed as cell-based.
Excerpt: as §1
The time necessary for elimination of single cell alga, protozoan, bacteria and the like was extremely short. […]

Data set [5] has as its system single cell alga. The data set can be described thus: Test of elimination of single cell alga in seawater (ballast water) by hydroxyl radical solution. It is filed as cell-based. The following applies: OH concentration 0.63 mg/L.
Excerpt: as §1

On to hydroxyl radical [OH], for which the Lethality in data set [1], in data set [2] and in data set [5] was 100% throughout. In addition, the Microorganism concentration entry in data set [1] (untreated 1.9 × 10^5), in data set [2] (untreated 4.4 × 10^4) and in data set [5] (untreated 6.0 × 10^4) was “not detectable” throughout. Also, the “time after which residual hydroxyl radicals were decomposed into H2O, O2” value in data set [3] stood at 20 min. Besides, the “time needed for elimination of microorganism” value in data set [4] (from curve of time against lethality, FIG. 4) is on record as “about 4 s”. In data set [4] (single cell alga, protozoan, spore, bacteria, vibrio in ballast water), the “concentration at which killing is feasible” value is 0.6 to 0.7 mg/L.
